From patent US10472336B2, “Modulators of indoleamine 2,3-dioxygenase” (GlaxoSmithKline Intellectual Property (No.2) Limited, priority 2015, dated 2019)
Structures can show the parent of a compound that is named as a salt.

Target: indoleamine 2, 3-dioxygenase (IDO1) (Homo sapiens, UniProt P14902)
Test: HeLa IDOi assay (kynurenine detection by mass spectrometry)
Format: cell-based
Design: human epithelial HeLa cells (CCL-2; host or cells: HeLa cells stimulated with human IFN-γ
Conditions: IFN-γ stimulated human epithelial HeLa cells, 2 days
Protocol: Compounds of the present invention were tested via high-throughput cellular assays utilizing detection of kynurenine via mass spectrometry and cytotoxicity as end-points. For the mass spectrometry and cytotoxicity assays, human epithelial HeLa cells (CCL-2; ATCC®, Manassas, Va.) were stimulated with human interferon-γ (IFN-γ) (Sigma-Aldrich Corporation, St. Louis, Mo.) to induce the expression of indoleamine 2, 3-dioxygenase (IDO1). Compounds with IDO1 inhibitory properties decreased the amount of kynurenine produced by the cells via the tryptophan catabolic pathway. Cellular toxicity due to the effect of compound treatment was measured using CellTiter-Glo® reagent (CTG) (Promega Corporation, Madison, Wis.), which is based on luminescent detection of ATP, an indicator of metabolically active cells.
In preparation for the assays, test compounds were serially diluted 3-fold in DMSO from a typical top concentration of 5 mM and plated at 0.5 μL in 384-well, polystyrene, clear bottom, tissue culture treated plates with lids (Greiner Bio-One, Kremsmünster, Austria) to generate 11-point dose response curves. Low control wells (0% kynurenine or 100% cytotoxicity) contained either 0.5 μL of DMSO in the presence of unstimulated (−IFN-γ) HeLa cells for the mass spectrometry assay or 0.5 μL of DMSO in the absence of cells for the cytotoxicity assay, and high control wells (100% kynurenine or 0% cytotoxicity) contained 0.5 μL of DMSO in the presence of stimulated (+IFN-γ) HeLa cells for both the mass spectrometry and cytotoxicity assays.
Frozen stocks of HeLa cells were washed and recovered in DMEM high glucose medium with HEPES (Thermo Fisher Scientific, Inc., Waltham, Mass.) supplemented with 10% v/v certified fetal bovine serum (FBS) (Thermo Fisher Scientific, Inc., Waltham, Mass.), and 1× penicillin-streptomycin antibiotic solution (Thermo Fisher Scientific, Inc., Waltham, Mass.). The cells were diluted to 100,000 cells/mL in the supplemented DMEM medium. 50 μL of either the cell suspension, for the mass spectrometry assay, or medium alone, for the cytotoxicity assay, were added to the low control wells, on the previously prepared 384-well compound plates, resulting in 5,000 cells/well or 0 cells/well respectively. IFN-γ was added to the remaining cell suspension at a final concentration of 10 nM, and 50 μL of the stimulated cells were added to all remaining wells on the 384-well compound plates. The plates, with lids, were then placed in a 37° C., 5% CO2 humidified incubator for 2 days.
Following incubation, the 384-well plates were removed from the incubator and allowed to equilibrate to room temperature for 30 minutes. For the cytotoxicity assay, CellTiter-Glo® was prepared according to the manufacturer's instructions, and 10 μL were added to each plate well. After a twenty minute incubation at room temperature, luminescence was read on an EnVision® Multilabel Reader (PerkinElmer Inc., Waltham, Mass.). For the mass spectrometry assay, 10 μL of supernatant from each well of the compound-treated plates were added to 40 μL of acetonitrile, containing 10 μM of an internal standard for normalization, in 384-well, polypropylene, V-bottom plates (Greiner Bio-One, Kremsmünster, Austria) to extract the organic analytes. Following centrifugation at 2000 rpm for 10 minutes, 10 μL from each well of the acetonitrile extraction plates were added to 90 μL of sterile, distilled H2O in 384-well, polypropylene, V-bottom plates for analysis of kynurenine and the internal standard on the RapidFire 300 (Agilent Technologies, Santa Clara, Calif.) and 4000 QTRAP MS (SCIEX, Framingham, Mass.). MS data were integrated using Agilent Technologies' RapidFire Integrator software, and data were normalized for analysis as a ratio of kynurenine to the internal standard. […]

indoleamine 2, 3-dioxygenase (IDO1), sequence (P14902 whole entry): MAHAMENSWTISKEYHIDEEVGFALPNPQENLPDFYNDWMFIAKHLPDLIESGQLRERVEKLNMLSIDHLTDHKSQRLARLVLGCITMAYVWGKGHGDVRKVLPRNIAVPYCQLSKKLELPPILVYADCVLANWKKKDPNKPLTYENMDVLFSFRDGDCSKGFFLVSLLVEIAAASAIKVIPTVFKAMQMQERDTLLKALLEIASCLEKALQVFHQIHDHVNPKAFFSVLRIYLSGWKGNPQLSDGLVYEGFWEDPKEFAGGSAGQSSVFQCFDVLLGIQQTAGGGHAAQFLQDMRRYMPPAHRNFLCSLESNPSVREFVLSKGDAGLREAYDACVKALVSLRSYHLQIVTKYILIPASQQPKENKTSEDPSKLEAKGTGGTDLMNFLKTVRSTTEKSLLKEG

SMILES	EC50 [nM]
CC(C)CN(c1ccc(C(C)CC(=O)O)cc1Nc1nc(Br)ns1)C1CCCCC1 (centres unmarked) [Example 52, 3-(3-((3-bromo-1,2,4-thiadiazol-5-yl)amino)-4-(cyclohexyl(isobutyl)amino)phenyl)butanoic acid]	79.4
COc1nccc(Nc2cc(C(C)CC(=O)O)ccc2N(CC(C)C)C2CCCCC2)n1 (centres unmarked) [Example 14, 3-(4-(cyclohexyl(isobutyl)amino)-3-((2-methoxypyrimidin-4-yl)amino)phenyl)butanoic acid]	39.8
CC(C)CN(c1ccc(C(C)CC(=O)O)cc1Nc1ccnc(Cl)n1)C1CCCCC1 (centres unmarked) [Example 13, 3-(3-((2-chloropyrimidin-4-yl)amino)-4-(cyclohexyl(isobutyl)amino)phenyl)butanoic acid]	12.6
CC(C)CN(CC(C)C)c1ccc(C(C)CC(=O)O)cc1Nc1nnc(-c2ccccc2)s1 (centres unmarked) [Example 27, 3-(4-(diisobutylamino)-3-((5-phenyl-1,3,4-thiadiazol-2-yl)amino)phenyl)butanoic acid]	31.6
CC(C)CN(CC(C)C)c1ccc(C(C)CC(=O)O)cc1Nc1ccnc(Cl)n1 (centres unmarked) [Example 11, 3-(3-((2-chloropyrimidin-4-yl)amino)-4-(diisobutylamino)phenyl)butanoic acid, 2,2,2-trifluoro-acetic acid salt]	100
CC(C)CN(c1ccc(C(C)CC(=O)O)cc1Nc1nc(C(F)(F)F)ns1)C1CCCCC1 (centres unmarked) [Example 33, 3-(4-(cyclohexyl(isobutyl)amino)-3-((3-(trifluoromethyl)-1,2,4-thiadiazol-5-yl)amino)phenyl)butanoic acid]	2.51
CC(C)CN(CC(C)C)c1ccc(C(C)CC(=O)O)cc1Nc1nc(-c2ccccc2)co1 (centres unmarked) [Example 3, 3-(4-(diisobutylamino)-3-((4-phenyloxazol-2-yl)amino)phenyl)butanoic acid]	501
CC(C)CN(c1ccc(C(C)CC(=O)O)cc1Nc1nc2ccccc2[nH]1)C1CCCCC1 (centres unmarked) [Example 6, 3-(3-((1H-benzo[d]imidazol-2-yl)amino)-4-(cyclohexyl(isobutyl)amino)phenyl)butanoic acid]	2.51
CCCCc1cc(C(C)CC(=O)O)cc(Nc2nc3ccccc3o2)c1OCCC (centres unmarked) [Example 35, 3-(3-(benzo[d]oxazol-2-ylamino)-5-butyl-4-propoxyphenyl)butanoic acid]	200
CC(C)CN(c1ccc(C(C)CC(=O)O)cc1Nc1nc(-c2ccccc2)co1)C1CCCCC1 (centres unmarked) [Example 10, 3-(4-(cyclohexyl(isobutyl)amino)-3-((4-phenyloxazol-2-yl)amino)phenyl)butanoic acid]	100
CCOC(=O)c1ncc(Nc2cc(C(C)CC(=O)O)ccc2N(CC(C)C)CC(C)C)s1 (centres unmarked) [Example 17, 3-(4-(diisobutylamino)-3-((2-(ethoxycarbonyl)thiazol-5-yl)amino)phenyl)butanoic acid]	25.1
CC(C)CN(c1ccc(C(C)CC(=O)O)cc1NC1=N[C@@H](C)CS1)C1CCCCC1 (stereo partly drawn) [Example 73, 3-(4-(cyclohexyl(isobutyl)amino)-3-(((S)-4-methyl-4,5-dihydrothiazol-2-yl)amino)phenyl) butanoic acid]	398
CC(C)CN(c1ccc(C(C)CC(=O)O)cc1NC1=N[C@H](C)CS1)C1CCCCC1 (stereo partly drawn) [Example 74, 3-(4-(Cyclohexyl(isobutyl)amino)-3-(((R)-4-methyl-4,5-dihydrothiazol-2-yl)amino)phenyl)butanoic Acid]	398
CC(C)CN(CC(C)C)c1ccc(C(C)CC(=O)O)cc1Nc1cnc(-c2ccccc2)s1 (centres unmarked) [Example 16, 3-(4-(diisobutylamino)-3-((2-phenylthiazol-5-yl)amino)phenyl)butanoic acid]	126
CC(C)CN(c1ccc(C(C)CC(=O)O)cc1Nc1nc2ccccc2o1)C1CCCCC1 (centres unmarked) [Example 8, 3-(3-(benzo[d]oxazol-2-ylamino)-4-(cyclohexyl(isobutyl)amino)phenyl)butanoic acid]	31.6
CC(C)CN(c1ccc(C(C)CC(=O)O)cc1NCc1ccccc1)C1CCCCC1 (centres unmarked) [Example 69, 3-(3-(Benzylamino)-4-(cyclohexyl(isobutyl)amino)phenyl)butanoic Acid]	158
CC(C)CN(c1ccc(C(C)CC(=O)O)cc1Nc1nc2ccccc2s1)C1CCCCC1 (centres unmarked) [Example 9, 3-(3-(benzo[d]thiazol-2-ylamino)-4-(cyclohexyl(isobutyl)amino)phenyl)butanoic acid]	3.98
CCCCc1cc(C(C)CC(=O)O)cc(Nc2nc(Cl)ns2)c1OCCC (centres unmarked) [Example 36, 3-(3-butyl-5-((3-chloro-1,2,4-thiadiazol-5-yl)amino)-4-propoxyphenyl)butanoic acid, 2,2,2-trifluoroacetic acid salt]	158
CC(C)CN(CC(C)C)c1ccc(C(C)CC(=O)O)cc1Nc1nc(-c2ccccc2)no1 (centres unmarked) [Example 51, 3-(4-(diisobutylamino)-3-((3-phenyl-1,2,4-oxadiazol-5-yl)amino)phenyl)butanoic acid]	398
CC(C)CN(CC(C)C)c1ccc(C(C)CC(=O)O)cc1Nc1nc(C(F)(F)F)co1 (centres unmarked) [Example 5, 3-(4-(diisobutylamino)-3-((4-(trifluoromethyl)oxazol-2-yl)amino)phenyl)butanoic acid]	20

Now from value to compound:

EC50 [nM]	SMILES
79.4	Cc1nsc(Nc2cc(C(C)CC(=O)O)ccc2N(CC(C)C)CC(C)C)n1 (centres unmarked) [Example 31, 3-(4-(diisobutylamino)-3-((3-methyl-1,2,4-thiadiazol-5-yl)amino)phenyl)butanoic acid]
631	CC(C)CN(CC(C)C)c1ccc(C(C)CC(=O)O)cc1Nc1nc(C(C)C)co1 (centres unmarked) [Example 4, 3-(4-(diisobutylamino)-3-((4-isopropyloxazol-2-yl)amino)phenyl)butanoic acid]
79.4	Cc1sc(Nc2cc(C(C)CC(=O)O)ccc2N(CC(C)C)CC(C)C)nc1C(F)(F)F (centres unmarked) [Example 45, 3-(4-(diisobutylamino)-3-((5-methyl-4-(trifluoromethyl)thiazol-2-yl)amino)phenyl)butanoic acid]
126	CC(C)CN(CC(C)C)c1ccc(C(C)CC(=O)O)cc1Nc1nc(C(C)C)cs1 (centres unmarked) [Example 46, 3-(4-(diisobutylamino)-3-((4-isopropylthiazol-2-yl)amino)phenyl)butanoic acid]
316	Cc1csc(Nc2cc(C(C)CC(=O)O)ccc2N(CC(C)C)CC(C)C)n1 (centres unmarked) [Example 24, 3-(4-(diisobutylamino)-3-((4-methylthiazol-2-yl)amino)phenyl)butanoic acid]
158	Cc1cnc(Nc2cc(C(C)CC(=O)O)ccc2N(CC(C)C)CC(C)C)s1 (centres unmarked) [Example 15, 3-(4-(diisobutylamino)-3-((5-methylthiazol-2-yl)amino)phenyl)butanoic acid]
200	CC(C)CN(CC(C)C)c1ccc(C(C)CC(=O)O)cc1Nc1nc(Br)ns1 (centres unmarked) [Example 32, 3-(3-((3-bromo-1,2,4-thiadiazol-5-yl)amino)-4-(diisobutylamino)phenyl)butanoic acid]
5.01	CC(C)CN(CC(C)C)c1ccc(C(C)CC(=O)O)cc1Nc1nnc(C2CC2)s1 (centres unmarked) [Example 26, 3-(3-((5-cyclopropyl-1,3,4-thiadiazol-2-yl)amino)-4-(diisobutylamino)phenyl)butanoic acid, 2,2,2-trifluoro-acetic acid salt]
316	Cc1nc(Nc2cc(C(C)CC(=O)O)ccc2N(CC(C)C)CC(C)C)sc1C (centres unmarked) [Example 43, 3-(4-(diisobutylamino)-3-((4,5-dimethylthiazol-2-yl)amino)phenyl)butanoic acid]
